Source: paper PMC3713598, “Renal Protective Role of Xiexin Decoction with Multiple Active Ingredients Involves Inhibition of Inflammation through Downregulation of the Nuclear Factor-κB Pathway in Diabetic Rats” (Evidence-based Complementary and Alternative Medicine : eCAM, 2013)
Read-outs that look alike come from different tables or passages of the source.

How the values were obtained:
diabetic rats [1] = test: Renal histopathology (PAS) and electron microscopy in diabetic rats; assay type: in vivo, rat; details: XXD 1.25 and 2.5 g/kg, losartan 10 mg/kg, metformin 100 mg/kg ig once a day, 12 weeks; compared with DM
Experimental: Male Sprague-Dawley rats (90-100 g) were purchased from the Shanghai Slac Laboratory Animal Co. (Shanghai, China). The rats were housed in an air-conditioned room at 22-24°C under a 12-h dark/light cycle and were given food and water at libitum. All animal experiments were conducted in accordance with the institutional guidelines for the care and use of laboratory animals at Shanghai University of TCM. After 1-week adaptation, animals were divided into a normal control (NC) group fed a standard diet and a high-fat group received a high-fat diet. After 4 weeks, rats on the high-fat diet were treated with streptozotocin (40 mg/kg, intraperitoneal injection). All diabetic rats with fasting blood glucose (FBG) levels above 16.7 mmol/L were then randomly divided into 5 groups: diabetic model control (DM); […] In the clinical practice of TCM, XXD is usually prescribed at a daily dose of 46 g of herbal materials (amount to 12 g extract) for diabetic patient. […] The ratio of the mesangial matrix area to glomerular area (M/G) was determined by quantitative Image-Pro Plus software (PAX-it; […], Villa Park, IL, USA). Briefly, 20 glomeruli were randomly selected from each section, and positive signals within the selected glomerulus were highlighted, measured, and quantified as percent positive area of the entire glomerulus. […]

MCP-1 = test: Renal MCP-1 protein and mRNA expression in diabetic rats; assay type: in vivo, rat; details: XXD 1.25 and 2.5 g/kg, losartan 10 mg/kg, metformin 100 mg/kg ig once a day, 12 weeks; compared with DM
Experimental: (§1) Male Sprague-Dawley rats (90-100 g) were purchased from the Shanghai Slac Laboratory Animal Co. (Shanghai, China). The rats were housed in an air-conditioned room at 22-24°C under a 12-h dark/light cycle and were given food and water at libitum. All animal experiments were conducted in accordance with the institutional guidelines for the care and use of laboratory animals at Shanghai University of TCM. After 1-week adaptation, animals were divided into a normal control (NC) group fed a standard diet and a high-fat group received a high-fat diet. After 4 weeks, rats on the high-fat diet were treated with streptozotocin (40 mg/kg, intraperitoneal injection). All diabetic rats with fasting blood glucose (FBG) levels above 16.7 mmol/L were then randomly divided into 5 groups: diabetic model control (DM); […] In the clinical practice of TCM, XXD is usually prescribed at a daily dose of 46 g of herbal materials (amount to 12 g extract) for diabetic patient. When this human dose was converted into an animal dose (a person of 60 kg, and a conversion factor of 6.25 between human and rat), it was equivalent to the low dose (1.25 g/kg extract) used in this study. […] The membrane-bound antibody was detected by incubation with chemiluminescent reagent plus (Perkin Elmer Life Sciences, Boston, MA, USA) and the signal captured on X-ray film. […]

diabetic rats [2] = test: Metabolic parameters in diabetic rats (high-fat diet and streptozotocin); assay type: in vivo, rat; details: for Serum triglyceride: DM 1.1 ± 0.6; for Serum cholesterol: DM 1.5 ± 0.2; for HbA1c: DM 7.2 ± 0.3; for FBG: DM 22.3 ± 2.8; for GAUC (area under the blood glucose response curve): DM 117.1 ± 6.4
Experimental: (§4) After 1-week adaptation, animals were divided into a normal control (NC) group fed a standard diet and a high-fat group received a high-fat diet. After 4 weeks, rats on the high-fat diet were treated with streptozotocin (40 mg/kg, intraperitoneal injection). […] NC and DM were treated with vehicle (normal saline) in a matched volume. All the rats were administered the drugs via intragastric gavage (ig) once a day, for 12 weeks.
At 12 weeks, FBG and area under the blood glucose response curve (GAUC) were measured by glucose oxidase method. HbA1c was determined by HPLC (Biorad, Richmond, CA, USA). Serum creatinine, urine creatinine, serum total cholesterol, and triglyceride levels were measured using an automatic biochemistry analyser (Olympus-2000, Tokyo, Japan). Creatinine clearance was calculated.

RAGE = test: Renal RAGE expression by western blot in diabetic rats; assay type: in vivo, rat; details: XXD 1.25 and 2.5 g/kg, metformin 100 mg/kg ig once a day, 12 weeks; compared with DM
Experimental: Male Sprague-Dawley rats (90−100 g) were purchased from the Shanghai Slac Laboratory Animal Co. (Shanghai, China). The rats were housed in an air-conditioned room at 22–24°C under a 12-h dark/light cycle and were given food and water at libitum. All animal experiments were conducted in accordance with the institutional guidelines for the care and use of laboratory animals at Shanghai University of TCM. After 1-week adaptation, animals were divided into a normal control (NC) group fed a standard diet and a high-fat group received a high-fat diet. After 4 weeks, rats on the high-fat diet were treated with streptozotocin (40 mg/kg, intraperitoneal injection). […] In the clinical practice of TCM, XXD is usually prescribed at a daily dose of 46 g of herbal materials (amount to 12 g extract) for diabetic patient. When this human dose was converted into an animal dose (a person of 60 kg, and a conversion factor of 6.25 between human and rat), it was equivalent to the low dose (1.25 g/kg extract) used in this study. […]
Kidney tissue was homogenized in radioimmunoprecipitation assay buffer containing 0.5% Nonidet P-40, 0.5% sodium deoxycholate, 0.1% SDS, 10 mmol/L EDTA, and protease inhibitors. […] The membrane-bound antibody was detected by incubation with chemiluminescent reagent plus (Perkin Elmer Life Sciences, Boston, MA, USA) and the signal captured on X-ray film. […]

TNF-α = test: Renal TNF-α level by ELISA in diabetic rats; assay type: in vivo, rat; details: XXD 1.25 and 2.5 g/kg, losartan 10 mg/kg, metformin 100 mg/kg ig once a day, 12 weeks; compared with DM
Experimental: (§2) Male Sprague-Dawley rats (90-100 g) were purchased from the Shanghai Slac Laboratory Animal Co. (Shanghai, China). The rats were housed in an air-conditioned room at 22-24°C under a 12-h dark/light cycle and were given food and water at libitum. All animal experiments were conducted in accordance with the institutional guidelines for the care and use of laboratory animals at Shanghai University of TCM. After 1-week adaptation, animals were divided into a normal control (NC) group fed a standard diet and a high-fat group received a high-fat diet. After 4 weeks, rats on the high-fat diet were treated with streptozotocin (40 mg/kg, intraperitoneal injection). All diabetic rats with fasting blood glucose (FBG) levels above 16.7 mmol/L were then randomly divided into 5 groups: diabetic model control (DM); […] In the clinical practice of TCM, XXD is usually prescribed at a daily dose of 46 g of herbal materials (amount to 12 g extract) for diabetic patient. When this human dose was converted into an animal dose (a person of 60 kg, and a conversion factor of 6.25 between human and rat), it was equivalent to the low dose (1.25 g/kg extract) used in this study. […] Tumor necrosis factor α (TNF-α), IL-6 and AGEs protein levels in renal tissue were measured using commercial ELISA kits (R&D, Minneapolis, MN, USA) according to the manufacturer's instructions.

AGEs = test: Renal AGEs level by ELISA in diabetic rats; assay type: in vivo, rat; details: XXD 1.25 and 2.5 g/kg, metformin 100 mg/kg ig once a day, 12 weeks; compared with DM
Experimental: (§3) Male Sprague-Dawley rats (90−100 g) were purchased from the Shanghai Slac Laboratory Animal Co. (Shanghai, China). The rats were housed in an air-conditioned room at 22–24°C under a 12-h dark/light cycle and were given food and water at libitum. All animal experiments were conducted in accordance with the institutional guidelines for the care and use of laboratory animals at Shanghai University of TCM. After 1-week adaptation, animals were divided into a normal control (NC) group fed a standard diet and a high-fat group received a high-fat diet. After 4 weeks, rats on the high-fat diet were treated with streptozotocin (40 mg/kg, intraperitoneal injection). […] In the clinical practice of TCM, XXD is usually prescribed at a daily dose of 46 g of herbal materials (amount to 12 g extract) for diabetic patient. When this human dose was converted into an animal dose (a person of 60 kg, and a conversion factor of 6.25 between human and rat), it was equivalent to the low dose (1.25 g/kg extract) used in this study. NC and DM were treated with vehicle (normal saline) in a matched volume. All the rats were administered the drugs via intragastric gavage (ig) once a day, for 12 weeks.
Tumor necrosis factor α (TNF-α), IL-6 and AGEs protein levels in renal tissue were measured using commercial ELISA kits (R&D, Minneapolis, MN, USA) according to the manufacturer's instructions.

ICAM-1 = test: Renal ICAM-1 protein and mRNA expression in diabetic rats; assay type: in vivo, rat; details: XXD 1.25 and 2.5 g/kg, losartan 10 mg/kg, metformin 100 mg/kg ig once a day, 12 weeks; compared with DM
Experimental: as §1

IL-6 = test: Renal IL-6 level by ELISA in diabetic rats; assay type: in vivo, rat; details: XXD 1.25 and 2.5 g/kg, losartan 10 mg/kg ig once a day, 12 weeks; compared with DM
Experimental: as §2

diabetic rats [3] = test: Urinary albumin excretion and renal function in diabetic rats; assay type: in vivo, rat
Experimental: as §4
At 12 weeks, FBG and area under the blood glucose response curve (GAUC) were measured by glucose oxidase method. HbA1c was determined by HPLC (Biorad, Richmond, CA, USA). Serum creatinine, urine creatinine, serum total cholesterol, and triglyceride levels were measured using an automatic biochemistry analyser (Olympus-2000, Tokyo, Japan). Creatinine clearance was calculated. The kidneys were removed, weighed, and parts of them frozen at −80°C until processing for Western blot and RNA extraction, while other parts were removed for histological examination.

NF-κB signalling pathway = test: Renal NF-κB signalling pathway (western blot, real-time PCR) in diabetic rats; assay type: in vivo, rat; details: XXD 1.25 and 2.5 g/kg, losartan 10 mg/kg ig once a day, 12 weeks; compared with DM
Experimental: as §1

TGF-β1 = test: Renal TGF-β1 protein and mRNA expression in diabetic rats; assay type: in vivo, rat; details: XXD 1.25 and 2.5 g/kg, losartan 10 mg/kg ig once a day, 12 weeks; compared with DM
Experimental: as §1

diabetic nephropathy = details: cited from earlier work
[4] = Pharmacokinetics of XXD ingredients in diabetic rat plasma (LC-MS/MS); assay type: in vivo; details: diabetic rats; for AUC(0-t) / Cmax: male, Sprague-Dawley, rat, po, plasma, mean ± SD n = 8; for AUC(0-t): read-out: AUC0–24 h; for Cmax: read-out: C max
Experimental: as §3
The rats treated with XXD for 12 weeks were fasted with free access to water for 12 h before the PK experiments. Blood samples were collected before dosing and at 0, 0.25, 0.5, 1, 2, 4, 6, 12, and 24 h following administration. A validated liquid chromatography-tandem mass spectrometry (LC-MS/MS) method was applied to simultaneously determine the concentration of 11 ingredients (coptisine, jatrorrhizine, berberine, palmatine, baicalin, baicalein, wogonoside, wogonin, rhein, emodin, and aloeemodin) in blood plasma. The plasma concentration-time data were analysed by noncompartmental methods with the WinNonLin software package (Pharsight Corporation, Mountain View, CA, USA) to determine PK parameters.

diabetic mouse kidney = tested on: diabetic mouse kidney; set-up: method as in PMID 22483555, PMID 20447389; details: cited from earlier work
gut microbes = tested on: gut microbes; set-up: method as in PMID 21915347, PMID 22880019; details: by regulation of gut microbes; cited from earlier work
[5] = metformin 100 mg/kg ig once a day 12 weeks
[6] = losartan 10 mg/kg ig once a day 12 weeks
[7] = XXD 1.25 g/kg intragastric gavage for 12 weeks
[8] = XXD 2.5 g/kg intragastric gavage for 12 weeks

## CN(C)C(=N)N=C(N)N [metformin]
Diabetic rats [1]
  renal pathological changes (glomerular hypertrophy, mesangial matrix expansion, M/G, basement membrane thickening): ameliorated
MCP-1
  renal protein and mRNA MCP-1 expression: significant reduction
Diabetic rats [2]; [5]
  Serum triglyceride: 1.0 ± 0.3 mmol/L
  Serum cholesterol: 1.2 ± 0.4 mmol/L
  HbA1c: 6.6 ± 0.5 %
  FBG: 9.4 ± 2.5 mmol/L
  GAUC (area under the blood glucose response curve): 70.9 ± 9.5 mmol·h/L
RAGE
  renal RAGE expression: downregulated
TNF-α
  renal TNF-α level: significant reduction
AGEs
  total renal AGEs content: significantly reduced
ICAM-1
  renal protein and mRNA ICAM-1 expression: significant reduction

## CCCCc1nc(Cl)c(CO)n1Cc1ccc(-c2ccccc2-c2nn[nH]n2)cc1 [losartan]
Diabetic rats [1]
  renal pathological changes (glomerular hypertrophy, mesangial matrix expansion, M/G, basement membrane thickening): ameliorated
IL-6
  renal IL-6 level: significantly downregulated
MCP-1
  renal protein and mRNA MCP-1 expression: significantly downregulated
Diabetic rats [2]; [6]
  Serum triglyceride: 0.7 ± 0.3 mmol/L
  Serum cholesterol: 1.3 ± 0.2 mmol/L
  HbA1c: 6.9 ± 0.2%
  FBG: 21.6 ± 4.4 mmol/L
  GAUC (area under the blood glucose response curve): 111.8 ± 11.1 mmol·h/L
Diabetic rats [3]; XXD 1.25 and 2.5 g/kg, losartan 10 mg/kg, metformin 100 mg/kg ig once a day, 12 weeks, compared with DM
  urinary albumin excretion (UAE): significantly reduced
Diabetic rats [3]; losartan 10 mg/kg ig once a day 12 weeks, DM 1.18 ± 0.06
  Kidney weight/body weight: 1.00 ± 0.05 %
NF-κB signalling pathway
  renal IKKα, phospho-IκBα, phospho-NF-κBp65, NF-κBp65 and IκBα protein expression changes: significantly ameliorated
  renal NF-κBp65 mRNA expression: downregulated
TGF-β1
  renal TGF-β1 protein and mRNA expression: significantly downregulated
TNF-α
  renal TNF-α level: significantly downregulated
ICAM-1
  renal protein and mRNA ICAM-1 expression: significantly downregulated

## COc1ccc2cc3[n+](cc2c1OC)CCc1cc2c(cc1-3)OCO2 [Berberine, berberine]
Diabetic nephropathy
  anti-DN effects: exhibited anti-DN effects
[4]; after ig administration of XXD for 12 weeks
  shape of plasma concentration-time curve: double peaks
[4]; [7]
  AUC(0-t): 757 ± 389 ng·h/mL
  Cmax: 51 ± 20 ng/mL
[4]; [8]
  AUC(0-t): 1730 ± 1040 ng·h/mL
  Cmax: 118 ± 78 ng/mL
Diabetic mouse kidney
  TGF-β1, ICAM-1, and VCAM-1 protein expression: downregulating
  renal AGE generation: inhibiting
Diabetic mouse kidney; diabetic mouse kidney
  IKBα protein level: increased
  NF-κBp65 protein level: decreased
Gut microbes
  blood lipid levels: reduced
